Reference: ChEMBL document CHEMBL4304777 (Eur J Med Chem, 2019)
Each block holds one molecule with its values, some of them ahead of it.

What was measured:
[1] = Antiproliferative activity against human Mino cells assessed as reduction in cell viability; format: functional, cell-based
MOLT-4 = assay: Antiproliferative activity against human MOLT4 cells assessed as reduction in cell viability; format: functional, cell-based
HCT-116 [2] = assay: Cytotoxicity against human HCT116 cells assessed as reduction in cell viability incubated for 72 hrs by SRB assay; format: functional, cell-based; conditions: HCT-116, 72 h
HCT-116 [3] = assay: Induction of apoptosis in human HCT116 cells assessed as apoptotic cells at 2 uM incubated for 72 hrs by annexin V - FITC and propidium iodide staining based flow cytometry (reference value: 6.99 %); format: functional
U-937 = assay: Antiproliferative activity against human U937 cells assessed as reduction in cell viability; format: functional, cell-based
[4] = Oral bioavailability in Sprague-Dawley rat at 10 mg/kg, measured up 48 hrs by LC-MS/MS analysis; format: ADME, organism-based; conditions: in vivo
[5] = Stability in rat plasma assessed as remaining compound at 100 ug/ml incubated for 1.5 hrs by LC-MS analysis; format: ADME, cell-free; conditions: read-out: Stability
MM1.S [6] = assay: Antiproliferative activity against human MM1S cells assessed as reduction in cell viability; format: functional, cell-based
[7] = Stability in mouse liver microsomes assessed as remaining compound at 100 ug/ml incubated for 1.5 hrs by LC-MS analysis; format: ADME, Microsome; conditions: read-out: Stability
MM1.S [8] = assay: Antitumor activity against human MM1S cells xenografted in BALB/c mouse assessed as tumor growth inhibition at 30 mg/kg, po administered for 14 days; format: functional; conditions: 336 h, read-out: TGI
[9] = Half life in Sprague-Dawley rat at 2 mg/kg, iv measured up 48 hrs by LC-MS/MS analysis; format: ADME, organism-based; conditions: in vivo
HCT-116 [10] = assay: Induction of apoptosis in human HCT116 cells assessed as apoptotic cells at 10 uM incubated for 72 hrs by annexin V - FITC and propidium iodide staining based flow cytometry (reference value: 6.99 %); format: functional
[11] = AUC (0 to infinity) in Sprague-Dawley rat at 10 mg/kg, po measured up 48 hrs by LC-MS/MS analysis; format: ADME, organism-based; parameters: dose 10 mg/kg, time infinity, route oral; conditions: in vivo
[12] = Tmax in Sprague-Dawley rat at 2 mg/kg, iv measured up 48 hrs by LC-MS/MS analysis; format: ADME, organism-based; conditions: in vivo
[13] = Stability in dog liver microsomes assessed as remaining compound at 100 ug/ml incubated for 1.5 hrs by LC-MS analysis; format: ADME, Canis lupus familiaris, Microsome; conditions: read-out: Stability
K562 = assay: Antiproliferative activity against human K562 cells assessed as reduction in cell viability; format: functional, cell-based
[14] = Toxicity in BALB/c mouse xenografted with human MM1S cells assessed as body weight loss at 15 to 30 mg/kg, po administered once daily for 14 days; format: organism-based; conditions: in vivo, 336 h
[15] = AUC (0 to t) in Sprague-Dawley rat at 2 mg/kg, iv measured up 48 hrs by LC-MS/MS analysis; format: ADME, organism-based; conditions: in vivo
MM1.S [16] = assay: Antitumor activity against human MM1S cells xenografted in BALB/c mouse assessed as tumor growth inhibition at 15 mg/kg, po administered for 14 days; format: functional; conditions: 336 h, read-out: TGI
[17] = Stability in rat liver microsomes assessed as remaining compound at 100 ug/ml incubated for 1.5 hrs by LC-MS analysis; format: ADME, Microsome; conditions: read-out: Stability
[18] = Stability in human liver microsomes assessed as remaining compound at 100 ug/ml incubated for 1.5 hrs by LC-MS analysis; format: ADME, Microsome; conditions: read-out: Stability
CCRF-CEM = assay: Antiproliferative activity against human CCRF-CEM cells assessed as reduction in cell viability; format: functional, cell-based
hERG (KCNH2) = hERG (KCNH2) (Homo sapiens, UniProt Q12809); assay: Inhibition of human ERG expressed in HEK293 cells at 3 uM at - 40 mV holding potential by whole cell patch clamp assay relative to control; format: cell-based; conditions: HEK293 cells expressing human ERG
[19] = Half life in Sprague-Dawley rat at 10 mg/kg, po measured up 48 hrs by LC-MS/MS analysis; format: ADME, organism-based; conditions: in vivo
MV4-11 = assay: Antiproliferative activity against human MV4-11 cells assessed as reduction in cell viability; format: functional, cell-based
[20] = Cmax in Sprague-Dawley rat at 2 mg/kg, iv measured up 48 hrs by LC-MS/MS analysis; format: ADME, organism-based; parameters: dose 2 mg/kg, route intravenous; conditions: in vivo
HCT-116 [21] = assay: Induction of apoptosis in human HCT116 cells assessed as apoptotic cells at 0.4 uM incubated for 72 hrs by annexin V - FITC and propidium iodide staining based flow cytometry (reference value: 6.99 %); format: functional
[22] = Tmax in Sprague-Dawley rat at 10 mg/kg, po measured up 48 hrs by LC-MS/MS analysis; format: ADME, organism-based; conditions: in vivo
[23] = Cmax in Sprague-Dawley rat at 10 mg/kg, po measured up 48 hrs by LC-MS/MS analysis; format: ADME, organism-based; parameters: dose 10 mg/kg, route oral; conditions: in vivo
RPMI-8226 = assay: Antiproliferative activity against human RPMI8226 cells assessed as reduction in cell viability; format: functional, cell-based
[24] = Antiproliferative activity against human CEM/C1 cells assessed as reduction in cell viability; format: functional, cell-based
[25] = AUC (0 to t) in Sprague-Dawley rat at 10 mg/kg, po measured up 48 hrs by LC-MS/MS analysis; format: ADME, organism-based; conditions: in vivo
[26] = molecular target: RAC-alpha serine/threonine-protein kinase (Homo sapiens, UniProt P31749); assay: Inhibition of Akt1 (unknown origin) expressed in Escherichia coli using peptide as substrate incubated for 1 hr by HTRF assay
[27] = Stability in human plasma assessed as remaining compound at 100 ug/ml incubated for 1.5 hrs by LC-MS analysis; format: ADME, cell-free; conditions: read-out: Stability
[28] = AUC (0 to infinity) in Sprague-Dawley rat at 2 mg/kg, iv measured up 48 hrs by LC-MS/MS analysis; format: ADME, organism-based; parameters: dose 2 mg/kg, time infinity, route intravenous; conditions: in vivo
HuT78 = assay: Antiproliferative activity against human HUT78 cells assessed as reduction in cell viability; format: functional, cell-based
JVM-2 = assay: Antiproliferative activity against human JVM2 cells assessed as reduction in cell viability; format: functional, cell-based
OVCAR-8 = assay: Cytotoxicity against human OVCAR8 cells assessed as reduction in cell viability incubated for 72 hrs by SRB assay; format: functional, cell-based; conditions: OVCAR-8, 72 h

Sequence of RAC-alpha serine/threonine-protein kinase (P31749 whole entry): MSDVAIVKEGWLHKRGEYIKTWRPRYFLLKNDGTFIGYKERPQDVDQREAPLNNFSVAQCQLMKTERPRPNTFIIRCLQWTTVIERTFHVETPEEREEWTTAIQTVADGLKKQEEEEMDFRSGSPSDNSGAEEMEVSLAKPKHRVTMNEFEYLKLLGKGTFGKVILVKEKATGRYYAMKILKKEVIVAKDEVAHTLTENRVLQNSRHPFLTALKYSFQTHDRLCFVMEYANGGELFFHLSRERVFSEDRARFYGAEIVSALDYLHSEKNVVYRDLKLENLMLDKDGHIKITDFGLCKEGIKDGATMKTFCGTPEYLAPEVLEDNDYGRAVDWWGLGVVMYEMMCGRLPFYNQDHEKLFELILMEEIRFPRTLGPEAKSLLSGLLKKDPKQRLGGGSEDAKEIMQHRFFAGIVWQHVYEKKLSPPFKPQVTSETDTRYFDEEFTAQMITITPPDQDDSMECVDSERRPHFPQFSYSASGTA
Sequence of hERG (KCNH2) (Q12809 whole entry): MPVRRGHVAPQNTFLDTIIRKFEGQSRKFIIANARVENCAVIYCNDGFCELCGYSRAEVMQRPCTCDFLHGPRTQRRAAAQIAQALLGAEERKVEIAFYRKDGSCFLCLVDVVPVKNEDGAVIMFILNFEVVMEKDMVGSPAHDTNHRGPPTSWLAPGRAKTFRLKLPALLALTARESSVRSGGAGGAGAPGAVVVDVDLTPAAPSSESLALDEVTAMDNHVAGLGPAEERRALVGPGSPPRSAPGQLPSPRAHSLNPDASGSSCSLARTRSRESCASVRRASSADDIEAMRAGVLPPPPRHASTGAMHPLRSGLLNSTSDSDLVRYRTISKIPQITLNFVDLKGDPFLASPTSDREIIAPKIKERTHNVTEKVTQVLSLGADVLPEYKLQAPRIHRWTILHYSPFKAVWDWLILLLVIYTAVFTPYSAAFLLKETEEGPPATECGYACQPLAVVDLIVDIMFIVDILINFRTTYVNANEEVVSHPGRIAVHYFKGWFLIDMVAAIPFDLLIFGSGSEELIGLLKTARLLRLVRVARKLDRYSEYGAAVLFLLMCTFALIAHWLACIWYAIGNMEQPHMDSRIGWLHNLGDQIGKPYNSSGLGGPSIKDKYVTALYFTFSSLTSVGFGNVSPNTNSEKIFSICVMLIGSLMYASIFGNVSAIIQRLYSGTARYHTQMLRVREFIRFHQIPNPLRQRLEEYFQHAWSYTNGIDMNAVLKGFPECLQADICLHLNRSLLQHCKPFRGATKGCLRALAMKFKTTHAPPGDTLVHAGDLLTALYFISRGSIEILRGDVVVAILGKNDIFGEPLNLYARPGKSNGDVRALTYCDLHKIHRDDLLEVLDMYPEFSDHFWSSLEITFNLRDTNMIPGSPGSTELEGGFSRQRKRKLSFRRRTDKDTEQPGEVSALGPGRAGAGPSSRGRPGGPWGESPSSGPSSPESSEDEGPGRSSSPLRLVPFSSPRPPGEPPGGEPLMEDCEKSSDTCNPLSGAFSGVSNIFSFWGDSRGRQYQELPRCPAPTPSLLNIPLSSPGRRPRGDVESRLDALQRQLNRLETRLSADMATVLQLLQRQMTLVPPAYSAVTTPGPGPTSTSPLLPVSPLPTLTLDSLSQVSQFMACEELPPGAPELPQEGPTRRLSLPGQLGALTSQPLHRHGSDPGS

IC50 (MOLT-4): 14 nM
IC50 (U-937): 188 nM
bioavailability [4]: 52%
remaining at 1.5 h, 100 ug/ml [5]: > 99%
IC50 (MM1.S [6]): 2 nM
remaining at 1.5 h, 100 ug/ml [7]: 82.7%
half-life [9]: 211 min
AUC(0-inf) [11]: 3940 ng·h/mL
Tmax [12]: 4.98 min
remaining at 1.5 h, 100 ug/ml [13]: 81.3%
IC50 (K562): > 3000 nM
AUC(0-t) at 48 h [15]: 1480 ng·h/mL
remaining at 1.5 h, 100 ug/ml [17]: 63.7%
remaining at 1.5 h, 100 ug/ml [18]: 88.3%
IC50 (CCRF-CEM): 8 nM
half-life [19]: 284 min
IC50 (MV4-11): 441 nM
Cmax [20]: 1440 ng/mL
Tmax [22]: 2.75 h
Cmax [23]: 423 ng/mL
IC50 (RPMI-8226): 49 nM
AUC(0-t) at 48 h [25]: 3890 ng·h/mL
IC50 [26]: 1.26 nM
remaining at 1.5 h, 100 ug/ml [27]: > 99%
AUC(0-inf) [28]: 1510 ng·h/mL
SMILES: Cl.Cn1ncc(Cl)c1-c1csc(C(=O)N[C@@H]2CNCC[C@H]2c2cccc(F)c2)c1
IC50 [1]: 531 nM
IC50 (HCT-116 [2]): 950 nM
Activity (HCT-116 [3]): 8.69%
inhibition in vivo at 30 mg/kg (MM1.S [8]): 42.1%
Activity (HCT-116 [10]): 24.58%
Activity [14]: Toxic
inhibition in vivo at 15 mg/kg (MM1.S [16]): 40.7%
inhibition at 3 µM (hERG (KCNH2)): 40%
Activity (HCT-116 [21]): 7.73%
IC50 [24]: 7 nM

IC50 (MOLT-4): 50 nM
IC50 (U-937): 78 nM
IC50 (MM1.S [6]): 21 nM
IC50 (K562): > 3000 nM
IC50 (MV4-11): 135 nM
IC50 (RPMI-8226): 263 nM
SMILES: Cl.Cn1ncc(Cl)c1-c1ccc(C(=O)N[C@@H]2CNCC[C@H]2c2cccc(F)c2)s1
IC50 (HCT-116 [2]): 440 nM
Activity (HCT-116 [3]): 22.68%
Activity (HCT-116 [10]): 89.62%
IC50 (HuT78): 298 nM
IC50 (JVM-2): 208 nM
Activity (HCT-116 [21]): 11.66%
IC50 [24]: 28 nM
IC50 (OVCAR-8): 230 nM

IC50 [26]: 101 nM
SMILES: Cn1ncc(C(=O)O)c1-c1ccc(C(=O)N[C@@H]2CNCC[C@H]2c2cccc(F)c2)s1
IC50 (HCT-116 [2]): > 50000 nM
IC50 (OVCAR-8): > 50000 nM

IC50 [26]: 70.4 nM
SMILES: Cn1ncc(-c2ccccc2)c1-c1ccc(C(=O)N[C@@H]2CNCC[C@H]2c2cccc(F)c2)s1
IC50 (HCT-116 [2]): 4420 nM
IC50 (OVCAR-8): 2510 nM

IC50 [26]: 13.7 nM
SMILES: Cn1ncc(Cl)c1-c1csc(C(=O)N[C@@H]2CNCC[C@H]2c2ccc(Cl)cc2)c1
IC50 (HCT-116 [2]): 1210 nM
IC50 (OVCAR-8): 5690 nM

IC50 [26]: 35.3 nM
SMILES: Cn1ncc(Cl)c1-c1csc(C(=O)N[C@@H]2CNCC[C@H]2c2ccc(Cl)c(C(F)(F)F)c2)c1
IC50 (HCT-116 [2]): 1850 nM
IC50 (OVCAR-8): 580 nM

IC50 [26]: 1.8 nM
SMILES: Cn1ncc(Cl)c1-c1ccc(C(=O)N[C@@H]2CNCC[C@H]2c2ccc(Cl)cc2)s1
IC50 (HCT-116 [2]): 3020 nM
IC50 (OVCAR-8): 1470 nM

IC50 [26]: 99.9 nM
SMILES: Cn1ncc(-c2ccncc2)c1-c1ccc(C(=O)N[C@@H]2CNCC[C@H]2c2cccc(F)c2)s1
IC50 (HCT-116 [2]): 24000 nM
IC50 (OVCAR-8): 28000 nM

IC50 [26]: 65.2 nM
SMILES: Cn1ncc(Cl)c1-c1ccc(C(=O)N[C@@H]2CNCC[C@H]2c2ccc(Cl)c(C(F)(F)F)c2)s1
IC50 (HCT-116 [2]): 1410 nM
IC50 (OVCAR-8): 640 nM

IC50 [26]: 10.6 nM
SMILES: Cn1nccc1-c1ccc(C(=O)N[C@@H]2CNCC[C@H]2c2cccc(F)c2)s1
IC50 (HCT-116 [2]): 1370 nM
IC50 (OVCAR-8): 1590 nM

IC50 [26]: 9 nM
SMILES: Cc1cnn(C)c1-c1ccc(C(=O)N[C@@H]2CNCC[C@H]2c2cccc(F)c2)s1
IC50 (HCT-116 [2]): 1780 nM
IC50 (OVCAR-8): 1740 nM

IC50 [26]: 46.9 nM
SMILES: C=Cc1cnn(C)c1-c1ccc(C(=O)N[C@@H]2CNCC[C@H]2c2cccc(F)c2)s1
IC50 (HCT-116 [2]): 6850 nM
IC50 (OVCAR-8): 3190 nM

IC50 [26]: 5.46 nM
SMILES: Cn1ncc(Br)c1-c1ccc(C(=O)N[C@@H]2CNCC[C@H]2c2cccc(F)c2)s1
IC50 (HCT-116 [2]): 890 nM

IC50 [26]: 48.9 nM
SMILES: CCc1cnn(C)c1-c1ccc(C(=O)N[C@@H]2CNCC[C@H]2c2cccc(F)c2)s1
IC50 (HCT-116 [2]): 2830 nM
IC50 (OVCAR-8): 2700 nM

IC50 (MOLT-4): 66 nM
IC50 (U-937): 101 nM
IC50 (MM1.S [6]): 32 nM
IC50 (K562): > 3000 nM
IC50 (MV4-11): 635 nM
IC50 (RPMI-8226): 538 nM
SMILES: Cn1ncc(Cl)c1-c1cc(C(=O)N[C@H](CN)Cc2ccc(F)c(F)c2)oc1Cl [UPROSERTIB]
IC50 (HCT-116 [2]): 1750 nM
inhibition in vivo at 30 mg/kg (MM1.S [8]): 36.8%
IC50 (HuT78): 378 nM
IC50 (JVM-2): 293 nM
IC50 [24]: 30 nM
IC50 (OVCAR-8): 540 nM

IC50 [26]: 10.2 nM
SMILES: Cn1nccc1-c1ccc(C(=O)N[C@@H]2CNCC[C@H]2c2ccc(Cl)cc2)s1
IC50 (HCT-116 [2]): 8870 nM
IC50 (OVCAR-8): 1390 nM

IC50 [26]: 62.2 nM
SMILES: Cn1ncc(CO)c1-c1ccc(C(=O)N[C@@H]2CNCC[C@H]2c2cccc(F)c2)s1
IC50 (HCT-116 [2]): 7420 nM
IC50 (OVCAR-8): 7170 nM
